In article PMC11350846, “Synthesis of Second-Generation Analogs of Temporin-SHa Peptide Having Broad-Spectrum Antibacterial and Anticancer Effects” (Antibiotics, 2024):
Where a SMILES comes first, the peptide text is derived from it. [ ]: non-standard residue; d: D form.

Legend:
[1] = test system: P. aeruginosa (ATCC 9027); settings: P. aeruginosa (ATCC 9027), 18-24 h
Experimental: (§1) The peptides were assessed for their antibacterial activity by determining the minimum inhibitory concentration (MIC) using the two-fold serial dilution method following the National Committee of Clinical Laboratory Standards, as previously described. Gram-negative (Acinetobacter baumannii (DSM 30007), Escherichia coli (ATCC 8739), Enterobacter cloacae (DSM 30054), Helicobacter pylori (ATCC 43504), Klebsiella pneumoniae (DSM 26371), Pseudomonas aeruginosa (ATCC 9027)) and Gram-positive bacteria (Bacillus subtilis (ATCC 6633), Enterococcus faecalis (DSM 2570), Enterococcus faecium (DSM 20477), Staphylococcus aureus (ATCC 6538)) were used for the antibacterial activity assays. In brief, 3 mL of Mueller–Hinton (MH) broth was inoculated with single clusters of the various bacterial strains and incubated overnight at 37 °C with agitation at 200 rpm. The next day, the bacterial solution was diluted with sterile MH by 1/100 and further incubated at 37 °C and 200 rpm until the bacteria reached the log phase growth (OD600nm around 0.6). The bacterial suspension was then adjusted to a density of approximately 10^5 bacteria/mL, and 100 μL was added per well of 96-well microplates (Greiner BioOne, Les Ulis, France), followed by exposure to increasing concentrations of peptides (from 0 to 100 µM, 1:2 dilution). Plates were then incubated at 37 °C for 18-24 h under either aerobic (for A. baumannii, E. cloacae, E. coli, P. aeruginosa, B. subtilis, and S. aureus) or micro-aerobic conditions generated using GasPak units (for E. faecalis, E. faecium and, H. pylori). […] The optical density (OD) at 600nm was measured using a microplate reader (Biotek, Synergy Mx, Les Ulis, France) after the final incubation. All experiments were performed in triplicate (n = 3).

S. aureus (ATCC 6538) = settings: 18-24 h
Experimental: as §1

A. baumannii (DSM 30007) = settings: A. baumannii (DSM 30007), 18-24 h
Experimental: as §1

E. cloacae (DSM 30054) = settings: E. cloacae (DSM 30054), 18-24 h
Experimental: as §1

K. pneumonia (DSM 26371) = settings: K. pneumonia (DSM 26371), 18-24 h
Experimental: as §1

H. pylori (ATCC 43504) = settings: micro-aerobic, 18-24 h
Experimental: as §1

E. faecalis (DSM 2570) = settings: E. faecalis (DSM 2570), micro-aerobic, 18-24 h
Experimental: as §1

B. subtilis (ATCC 6633) = settings: 18-24 h
Experimental: as §1

E. coli (ATCC 8739) = settings: E. coli (ATCC 8739), 18-24 h
Experimental: as §1

E. faecium (DSM 20477) = settings: E. faecium (DSM 20477), micro-aerobic, 18-24 h
Experimental: as §1

[2] = test system: Normal Lung Fibroblast (IMR-90); type: cell-based, human; settings: IMR-90 normal cells, 48 h; read-out: 50% inhibitory concentrations (IC50), cell proliferation
Experimental: (§2) The antiproliferative activity of the peptides was evaluated, as previously described using human cancer cell lines (A549 (lung), A2780 (ovary), HepG-2 (liver), MCF-7 (breast), MiaPaCa-2 (pancreas), MNT-1 (skin), and PC-3 (prostate)) and normal human lung fibroblasts (IMR-90) or epithelial cells (BEAS-2B). The cells were cultured in DMEM supplemented with 10% FBS, 1% L-glutamine, and 1% antibiotics at 37 °C in a 5% CO2 incubator. For the antiproliferative assay, cells were seeded in 96-well plates at approximately 3000 cells/well. Twenty-four hours later, cells were treated with increasing concentrations of peptides (1:2 serial dilution from 100 µM to 0 µM) for 48 h. After treatment, the number of viable cells was determined using a resazurin-based assay, and the fluorescence intensity was measured with a microplate reader (Ex 530 nm/Em 590 nm). The IC50 values of the peptides (i.e., the concentrations causing 50% inhibition of cell proliferation) were determined using GraphPad® Prism 7 software. The experiments were performed in triplicate (n = 3). The cytotoxicity of the peptides was also evaluated using confluent/no-dividing cells, as previously described. Briefly, human cells were seeded onto 96-well plates at 20,000 cells/well. When they reached 80–90% confluence (after 24–48 h), cells were treated with escalating concentrations of peptides. After 48h incubation, cell viability was measured using a resazurin assay and CC50 (i.e., the concentrations causing 50% inhibition of cell viability) and determined using GraphPad® Prism 7 software. The experiments were performed in triplicate (n = 3).

Skin Cancer (MNT-1) = type: cell-based, human; settings: MNT-1, 48 h; read-out: 50% inhibitory concentrations (IC50), cell proliferation
Experimental: as §2

Liver Cancer (HepG-2) = type: cell-based, human; settings: HepG-2, 48 h; read-out: 50% inhibitory concentrations (IC50), cell proliferation
Experimental: as §2

Lung Cancer (A549) = type: cell-based, human; settings: A549, 48 h; read-out: 50% inhibitory concentrations (IC50), cell proliferation
Experimental: as §2

[3] = test system: Normal Lung Epithelium (BEAS-2B); type: cell-based, human; settings: BEAS-2B normal cells, 48 h; read-out: 50% inhibitory concentrations (IC50), cell proliferation
Experimental: as §2

Prostate Cancer (PC-3) = type: cell-based, human; settings: PC-3, 48 h; read-out: 50% inhibitory concentrations (IC50), cell proliferation
Experimental: as §2

Ovarian Cancer (A2780) = type: cell-based, human; settings: A2780, 48 h; read-out: 50% inhibitory concentrations (IC50), cell proliferation
Experimental: as §2

[4] = test system: Pancreatic Cancer (MiaPaCa-2); type: cell-based, human; settings: MiaPaCa-2, 48 h; read-out: 50% inhibitory concentrations (IC50), cell proliferation
Experimental: as §2

Breast Cancer (MCF-7) = type: cell-based, human; settings: MCF-7, 48 h; read-out: 50% inhibitory concentrations (IC50), cell proliferation
Experimental: as §2

Row | Compound | minimum inhibitory concentration (MIC) [1] [µM] | minimum inhibitory concentration (MIC) (S. aureus (ATCC 6538)) [µM] | minimum inhibitory concentration (MIC) (A. baumannii (DSM 30007)) [µM] | minimum inhibitory concentration (MIC) (E. cloacae (DSM 30054)) [µM] | minimum inhibitory concentration (MIC) (K. pneumonia (DSM 26371)) [µM] | minimum inhibitory concentration (MIC) (H. pylori (ATCC 43504)) [µM] | minimum inhibitory concentration (MIC) (E. faecalis (DSM 2570)) [µM] | minimum inhibitory concentration (MIC) (B. subtilis (ATCC 6633)) [µM] | minimum inhibitory concentration (MIC) (E. coli (ATCC 8739)) [µM] | minimum inhibitory concentration (MIC) (E. faecium (DSM 20477)) [µM] | IC50 [2] [µM] | IC50 (Skin Cancer (MNT-1)) [µM] | IC50 (Liver Cancer (HepG-2)) [µM] | IC50 (Lung Cancer (A549)) [µM] | IC50 [3] [µM] | IC50 (Prostate Cancer (PC-3)) [µM] | IC50 (Ovarian Cancer (A2780)) [µM] | IC50 [4] [µM] | IC50 (Breast Cancer (MCF-7)) [µM]
1 | CC[C@H](C)[C@H](NC(=O)CNC(=O)[C@H](CO)NC(=O)[C@H](CC(C)C)NC(=O)[C@@H](N)Cc1ccccc1)C(=O)N[C@H](C(=O)NCC(=O)N[C@@H](CCSC)C(=O)N[C@@H](CC(C)C)C(=O)NCC(=O)N[C@@H](CCCCN)C(=O)N[C@@H](CC(C)C)C(=O)N[C@@H](Cc1ccccc1)C(N)=O)C(C)C [Temporin-SHa (1), H-Phe^1-Leu^2-Ser^3-Gly^4-IIe^5-Val^6-Gly^7-Met^8-Leu^9-Gly^10-Lys^11-Leu^12-Phe^13-NH2, reference compound] (H-FLSGIVGMLGKLF-NH2) | 50 | 3.12 | 6.25 | 50 | 50 | 3.12 | 12.5 | 1.56 | 50 | 6.25 | > 100 | > 100 | > 100 | > 100 | > 100 | > 100 | > 100 | > 100 | 26.9 ± 8.2
2 | CC[C@H](C)[C@H](NC(=O)CNC(=O)[C@H](CO)NC(=O)[C@H](CC(C)C)NC(=O)[C@@H](N)Cc1ccccc1)C(=O)N[C@H](C(=O)NCC(=O)N[C@@H](CCSC)C(=O)N[C@@H](CC(C)C)C(=O)N[C@H](C)C(=O)N[C@@H](CCCCN)C(=O)N[C@@H](CC(C)C)C(=O)N[C@@H](Cc1ccccc1)C(N)=O)C(C)C [[G10a]-SHa (2), H-Phe^1-Leu^2-Ser^3-Gly^4-IIe^5-Val^6-Gly^7-Met^8-Leu^9-D-Ala^10-Lys^11-Leu^12-Phe^13-NH2] (H-FLSGIVGML[dA]KLF-NH2) | >100 | 3.12 | 12.5 | >100 | 100 | 3.12 | 25 | 3.12 | 100 | >100 | 33 ± 3.1 | 14 ± 0.8 | 37.2 ± 5 | 12.1 ± 0.4 | 22.6 ± 0.7 | 13.1 ± 2.4 | 13.4 ± 0.7 | 23.1 ± 4.3 | 18.3 ± 8
